Laboratory results taken from PMC5703966, “Systemic clearance and brain distribution of carbazole-based cyanine compounds as Alzheimer’s disease drug candidates” (Scientific Reports, 2017).
Where two headings read alike, the source gives them in different places.

What was measured:
[1] = Stability in plasma, microsomes without cofactors and deactivated hepatocytes; type: in vitro ADME; conditions: ICR/CD-1, mouse and human; all species, 37 °C, more than 4 hours; read-out: half-life elimination (t 1/2) in plasma, microsomes and deactivated hepatocytes
Procedure: page 4: Supplemental Methods Blood-to-plasma ratio […] and incubated for an hour at 37 OC. At the end of the incubation period, plasma (CP) is separated from […] folds acetonitrile (ACN) containing berberine chloride as internal standard (IS) by LC-MS/MS (Analytical method seen below). The blood cell partitioning was calculated as follows. (1) Plasma, liver microsomes and hepatocyte binding by RED device The stability of the compounds in plasma, liver microsomes and hepatocyte were studied to ensure the reliability of the binding data. Hepatocyte was deactivated by leaving them on a bench for 2 days and going through a freeze thaw cycle thereafter. […] were inactivated. All validation compounds were incubated at 37 °C over 4 h, and in triplicate. For […] […] Natural logarithm of peak area ratios (compound peak area normalized by IS peak area) were plotted against time and half-life calculated. […] Aliquots (100 µL) were removed from each side of the insert, and analyzed after protein precipitation using 4 folds acetonitrile (ACN) containing berberine chloride as internal standard (IS) by LC-MS/MS (Analytical me thod seen below). […] In vitro stability in liver microsomes and hepatocytes Half-life (t1/2) of SLM or SLOH in liver microsomes was determined in duplicate. […]

[2] = Liver microsomes stability with UDPGA and alamethacin (glucuronidation); type: in vitro ADME; conditions: 0.5 mg/mL microsomes protein, read-out: t 1/2 in liver microsomes with UDPGA and alamethacin
Text: Microsomes and hepatocytes stability procedures and their parameters (the apparent intrinsic clearance (Cl int,app), unbound apparent intrinsic clearance (Cl u, int,app), scaled intrinsic clearance (Cl int,scaled), unbound scaled intrinsic clearance (Cl u, int,scaled), and Cl hep) calculation methods were shown in supplemental information (Supplemental Methods). The metabolites identification methods including LC-MS conditions was also found in supplemental information (Supplemental Methods). Several marker compounds as quality control were assayed (Table S6).
MS/MS. Natural logarithm of peak area ratios (compound peak area normalized by IS peak area) were plotted against time and half-life calculated. […]
In vitro stability in liver microsomes and hepatocytes
Half-life (t1/2) of SLM or SLOH in liver microsomes was determined in duplicate. In phase I reaction, the compound (1 μM) was incubated with liver microsomes (0.5 mg/mL) in 100 mM sodium phosphate buffer (pH 7.4) including 81 mM Na2HPO4 and 19 mM NaH2PO4 ) at 37 °C, the reaction mixture was prewarmed at 37 °C for 2 minutes before adding NADPH (1.0 mM). In phase II reaction, the compound (1 μM) was incubated with liver microsomes (0.5 mg/mL) in 100 mM Tris-HCl buffer (pH 7.4) containing 5 mM MgCl2, 10 μg/mL alamethicin, and 2% (w/v) BSA. After pre-incubated on ice for 15 min, the reactions were initiated with the addition of UDPGA (5.0 mM). Aliquots of the reaction mixture at 0, 5, 10, 15, 30 or 45 minutes were added to 4 folds acetonitrile (ACN) containing internal standard (IS), and the samples were centrifuged at 9,659 g for 5 mins before LC-MS/MS analysis of substrate […]
disappearance. […]
Hepatocytes were suspended at 0.5 × 10^6 viable cells/mL of HT Medium and prewarmed at 37 °C for 10 minutes. Incubations were initiated with the addition of SLM and SLOH (final concentration=1 μM) and were conducted at 37 °C, 75% relative humidity, and 5% CO2. The reaction was stopped at 0, 5, 15, 30, 60, 90, 120 minutes by the addition of 4 folds ACN containing berberine chloride as internal standard

half-life [1]	half-life at 1 μM ([2]; ICR/CD-1, mouse, pH 7.4, mice)	half-life at 1 μM ([2]; pH 7.4, human)	Compound
> 24 h	> 8.33 h	> 8.33 h	COCCOCCn1c2ccccc2c2cc(/C=C/c3cc[n+](CCO)c4ccccc34)ccc21 [SLOH, (E)-1-(2-hydroxyethyl)-4-(2-(9-(2-(2-metho-xyethoxy)-ethyl)-9H-carbazol-3-yl)vinyl) quinolin-1-ium chloride]
> 24 h	> 8.33 h	> 8.33 h	COCCOCCn1c2ccccc2c2cc(/C=C/c3cc[n+](C)c4ccccc34)ccc21.[I-] [SLM, (E)-4-(2-(9-(2-(2-methoxyethoxy)ethyl)-9H-carbazol-3-yl)-vinyl)-1-methyl-quinolin-1-iumiodide]
